A short description of data set [1]: In vivo pharmacokinetic study in Sprague-Dawley rats. The following applies: rat; for bioavailability: Sprague-Dawley, plasma, po, 10 mg/kg, PO (10 mg/kg) vs IV (2 mg/kg), read-out: F % (bioavailability); for % of Hepatisc Blood Flow: IV (2 mg/kg). As to the method: This example describes pharmacokinetic (PK) studies of the various indole compounds described herein in rats, a rodent species widely used for pre-clinical toxicology evaluation. In the present studies, the test compounds were given to groups of Sprague-Dawley rats (N=3 in each group) intravenously (IV) at 2 mg/kg or orally (PO) at 10 mg/kg. IV doses were formulated in DMSO, while PO doses were formulated in a 50/50 mixture of PEG400 and Tween 80. Blood samples were collected at pre-dose and over a period of 24 hours post-dose. Plasma concentrations of the indole compounds were determined by HPLC.

A short description of data set [2]: Separate PK study in mice. Type of data set: in vivo. The following applies: data not shown.
Data set [3] relates to CYP1A1 in human HepG2 cells. Put plainly: EROD assay (7-ethoxy-resorufin-O-deethylase), human HepG2 cells. Further details: key to activity group based on EC50 values, in the order of increasing activity: (1) active; (2) more active; (3) most active. It is filed as cell-based. The following applies: for activity group based on EC50 values, in the order of increasing activity: human EROD assay, oxadiazole derivatives of ITE. The method, then: CYP1A1 induction is under the control of the AhR signaling pathway. This Example describes an in vitro assay (7-ethoxy-resorufin-O-deethylase (EROD) assay) that evaluated the AhR modulating activities of the indole compounds described herein. In this assay, the indole compounds were incubated with human HepG2 cells or mouse Hepal-6 cells. The activity of CYP1A1 in the cells was measured by the conversion of substrate 7-ethoxyresorufin, with the readout being a fluorescence signal associated with the conversion product. The EC50 values of the indole compounds as well as the maximum […] induced by them in the assay were determined.
Human HepG2 cells were obtained from Sigma Aldrich (Catalog 85011430-1VL). Mouse Hepal-6 cells also were obtained from Sigma Aldrich (Catalog 92110305-1V).
Human HepG2 and Mouse Hepal-6 cells were grown to 60-80% confluency in tissue culture flasks, lifted with non-enzymatic cell dissociation solution (cell stripper), seeded in a 384-well plate at 5,000 cells per well, treated with the test compounds, and incubated for 20 hours overnight at 37° C. The treatment medium was removed and a solution of substrate 7-ethoxyresorufin (ETX) was added to initiate the reaction. The plate was incubated at 37° C. for 30 minutes. The reaction was subsequently terminated by adding tempered methanol. Fluorescent emission was measured at 590 nm with excitation at 530 nm in a FLEXSTATION III instrument (Molecular Devices).

In data set [4] the test system is Pan02 syngeneic mouse tumor model (pancreatic cancer). The data set is described as follows: Anti-tumor activity, Pan02 syngeneic mouse tumor model. Type of data set: in vivo. The following applies: Study 3, Pan02, 40 mpk i.p. QD, D60. The method, then:
(§1) This example describes in vivo studies that evaluated the anti-cancer efficacy of the disclosed indole compounds in syngeneic mouse tumor models. Mice implanted subcutaneously with four types of cancer cells were treated with test indole compounds or vehicle controls as described below.
(§2) A monolayer culture of tumor cells was maintained in vitro in DMEM or RPMI1640 medium supplemented with 10% fetal bovine serum at 37° C. in an atmosphere of 5% CO2. Cells in exponential growth phase were harvested and quantitated by cell counter before tumor inoculation. The cell lines used are described in the table below.
(§3) Four subcutaneous syngeneic mouse tumor models were generated by innoculating female BALB/C or C57BL/6 mice with cancer cells at their right lower or front flank as detailed in the table below:
(§4) Each mouse was inoculated subcutaneously with tumor cells in 0.1 mL of PBS. Treatments were started when the mean tumor size reached approximately 80-120 mm^3 (around 100 mm^3). The administration of the indole compounds and the animal number in each study group are shown in the study design. The date of tumor cell inoculation was denoted as day 0.
(§5) The indole compounds were dissolved in DMSO at the final concentration of 26.7 mg/ml and stored at room temperature.
Randomization of animals was started when the mean tumor size reached approximately 90 mm^3 to form the mouse study groups. […]
(§6) After tumor cell inoculation, the mice were checked daily for morbidity and mortality. During routine monitoring, the mice were checked for tumor growth and any effects of the treatment on behavior such as mobility, food and water consumption, body weight gain/loss (body weights were measured twice per week after randomization), eye/hair matting, and any other abnormalities. Mortality and observed clinical signs were recorded for individual mice in detail.
Tumor volumes were measured twice per week in two dimensions using a caliper, and the volume was expressed in mm^3 using the formula: V=(L×W×W)/2, where V is tumor volume, L is tumor length (the longest tumor dimension) and W is tumor width (the longest tumor dimension perpendicular to L). […] The body weights and tumor volumes were measured by using StudyDirector™ software (version 3.1.399.19). […]
(§7) Tumor growth inhibition percentage (TGI %) is an indicator for antitumor activity of a drug compound, and expressed as: TGI (%)=100×(1−T/C), where T and C are the mean tumor volume (or weight) of the treated and control groups, respectively, on a given day. […]
In Studies 1 and 3, the anti-tumor activity of ARI-001 in parallel with ARI-002 at 160 mg/kg (mpk), and the anti-tumor activity of ARI-087 in parallel with ARI-002 at 40 mpk were assessed using the EMT-6, Pan02, A20, and LL/2 models. […]

Data set [5] relates to A20 syngeneic mouse tumor model (B cell lymphoma). The data set is described as follows: Anti-tumor activity, A20 syngeneic mouse tumor model. Type of data set: in vivo. The following applies: for TGI (tumor growth inhibition): Study 3, A20, 40 mpk i.p. QD, D28. As to the method:
as §1, §2, §3, §4, §5
(§8) Randomization of animals was started when the mean tumor size reached approximately 90 mm^3 to form the mouse study groups. The randomization was performed based on “Matched distribution” method using the multi-task method (StudyDirector™ software, version 3.1.399.19)/randomized block design. The mouse groups (ten in each group) were treated with vehicle (DMSO) or the indole compounds at a dose of 40 mg/kg by i.p. injection, QD for 28 days or longer.
as §6
(§9) Tumor volumes were measured twice per week in two dimensions using a caliper, and the volume was expressed in mm^3 using the formula: V=(L×W×W)/2, where V is tumor volume, L is tumor length (the longest tumor dimension) and W is tumor width (the longest tumor dimension perpendicular to L). Dosing as well as tumor and body weight measurements was conducted in a Laminar Flow Cabinet. The body weights and tumor volumes were measured by using StudyDirector™ software (version 3.1.399.19). Dosing Holiday
as §7
(§10) In Studies 1 and 3, the anti-tumor activity of ARI-001 in parallel with ARI-002 at 160 mg/kg (mpk), and the anti-tumor activity of ARI-087 in parallel with ARI-002 at 40 mpk were assessed using the EMT-6, Pan02, A20, and LL/2 models. […] In Study 5, the anti-tumor activity of ARI-087 was evaluated in parallel with ARI-143 and ARI-149 at 40 mpk. […]

Data set [6] concerns EMT-6 syngeneic mouse tumor model (breast cancer). The data set is described as follows: Anti-tumor activity, EMT-6 syngeneic mouse tumor model. The following applies: for inhibition in vivo at 40 mg/kg: Mus musculus, EMT6, ip, read-out: TGI (tumor growth inhibition). It is filed as in vivo. The method, then: as §1, §2, §3, §4, §5, §8, §6, §9
Tumor growth inhibition percentage (TGI %) is an indicator for antitumor activity of a drug compound, and expressed as: TGI (%)=100×(1−T/C), where T and C are the mean tumor volume (or weight) of the treated and control groups, respectively, on a given day. Statistical analysis of the difference in mean tumor volume (MTV) among the groups was conducted using the data collected on the day when the MTV of the vehicle group reached the humane endpoints, so that TGI could be derived for all or most mice enrolled in the study.
In Studies 1 and 3, the anti-tumor activity of ARI-001 in parallel with ARI-002 at 160 mg/kg (mpk), and the anti-tumor activity of ARI-087 in parallel with ARI-002 at 40 mpk were assessed using the EMT-6, Pan02, A20, and LL/2 models. Because EMT-6 provides a fast-growing model that enables relatively quick differentiation of performance between compounds, this syngeneic mouse tumor model was chosen for the other studies. In Study 2, the anti-tumor activity of ARI-002 was compared with that of ARI-004 at 10, 40, and 80 mpk. In Study 4, the anti-tumor activity of ARI-087 was compared with that of ARI-140. In Study 5, the anti-tumor activity of ARI-087 was evaluated in parallel with ARI-143 and ARI-149 at 40 mpk. […]

Another data set relates to hepatocytes. The data set is described as follows: Metabolite analysis in hepatocytes by high-resolution mass spectrometry. The following applies: preliminary studies. Type of data set: in vitro ADME. From the text:
It remains unclear whether halogen substitutions at the indole ring impact the activity and metabolic profiles of the indole compounds described herein.

For data set [7], the system named is LL/2 syngeneic mouse tumor model (lung cancer). The data set is described as follows: Anti-tumor activity, LL/2 syngeneic mouse tumor model. It is filed as in vivo. The following applies: for TGI (tumor growth inhibition): Study 3, LL/2, 40 mpk i.p. QD. As to the method: as §1, §2, §3, §4, §5, §8, §6, §9, §7, §10
The mark [8] stands for this setting: 648 h, Study 3, EMT-6, 40 mpk i.p. QD, D27.

Structures are written as SMILES. Where two headings read alike, the source gives them in different places.

For orientation: bioavailability means dose-corrected exposure relative to a reference, in per cent. As to `Cc1noc(-c2csc(C(=O)c3c[nH]c4ccccc34)n2)n1` [ARI-031, (1H-indol-3-yl)(4-(3-methyl-1,2,4-oxadiazol-5-yl)thiazol-2-yl)methanone], in data set [1], the bioavailability was determined as 6.3% and the “% of Hepatisc Blood Flow” value is reported as 103%. For the same compound, the “IV PK profile compared to ARI-001, ARI-002, and ARI-004, in words” value in data set [1] (IV) is given as “improved IV PK profiles”. The “PK improvement over ARI-001 and ARI-002, in words” value in data set [2] is given as “confirms the improvement”. Besides, in data set [3], the “activity group based on EC50 values, in the order of increasing activity” value is listed as “active”. Further, in data set [3] (human HepG2 cells), the “activity in the human EROD assay compared to ARI-001 / ARI-002, in words” value is given as “significantly more (about 4 to 900 times more) active than ARI-001”.

By EC50 is commonly meant the concentration giving half of the maximal effect. As to `CCC(=O)c1csc(C(=O)c2c[nH]c3ccc(F)cc23)n1` [ARI-087, 1-(2-(5-fluoro-1H-indole-3-carbonyl)thiazol-4-yl)propan-1-one], the “TGI (tumor growth inhibition)” value in data set [4] is given as 64.9% D60; in data set [5], 20.9% D28; in data set [7] (D38), 23.3% D38. Besides, the “tumor inhibitory activity compared to ARI-002, in words” value in data set [5] (Study 3, lymphoma model, 40 mpk) is on record as “better tumor inhibitory activity than parent compound ARI-002”; in data set [7] (Study 3, lung model, 40 mpk), “better tumor inhibitory activity than parent compound ARI-002”. In data set [1], the bioavailability was 19.7%. Also, the “IV AUCinf, % of that of ARI-002” value in data set [1] (IV) was found to be 45%. Further, in data set [1] (IV), the “plasma clearance, times higher than ARI-002” value amounted to 3.2 times. Moreover, in data set [1], the “% of Hepatisc Blood Flow” value was determined as 84%. In addition, the “PO AUCinf, % of that of ARI-002” value in data set [1] (PO) came out at 81%. Besides, the “absolute oral bioavailability, times higher than ARI-002” value in data set [1] (PO) was 1.8 times. In addition, in data set [6] (EMT-6 model, 40 mpk), the “anti-tumor potency, in words” value is listed as “better tumor inhibitory activity than parent compound ARI-002”. Moreover, in data set [6] (EMT-6 model, 40 mpk), the “tumor growth and survival, in words” value was “delayed tumor growth and prolonged survival”. Besides, the “complete tumor regression (CR)” value in data set [6] (EMT-6 model, Study 4, by day 46) was “did not result in a CR until day 81”; in data set [6] (EMT-6 model, Study 5, by day 51), “did not have any animal in CR”. Further, in data set [6] (EMT-6 model, day 27, 40 mpk), the “animals with tumor volumes<1000 mm^3” value is on record as 6 out of 10. In addition, the inhibition in vivo at 40 mg/kg in data set [6] (624 h, Study 6, EMT-6, 40 mpk i.p. QD, D26) is 52.8%; in data set [6] (setting [8]) it was 56.7%; in data set [6] (672 h, Study 4, EMT-6, 40 mpk i.p. QD, D28), 29.5%; in data set [6] (720 h, Study 5, EMT-6, 40 mpk i.p. QD, D30) it was 42.2%. In addition, the “primary metabolites of the indole ring identified” value with hepatocytes is given as “fewer primary metabolites of the indole ring”. Moreover, it took 34.2 nM to reach a half-maximal effect in data set [3] (EROD assay, human HepG2 cells, 20 hours treatment) (EC50).

`Cc1nc(-c2csc(C(=O)c3c[nH]c4ccccc34)n2)no1` [ARI-030, (1H-indol-3-yl)(4-(5-methyl-1,2,4-oxadiazol-3-yl)thiazol-2-yl)methanone]: the results for the “TGI (tumor growth inhibition)” value in data set [4], in data set [5] and in data set [7] (D28) were 23.5% D60, −0.8% D28 and 8.4% D28, respectively. For the same compound, the bioavailability in data set [1] was 0.9%. For the same compound, in data set [1] (IV), the “IV PK profile compared to ARI-001, ARI-002, and ARI-004, in words” value is “improved IV PK profiles”. Further, the “% of Hepatisc Blood Flow” value in data set [1] was determined as 28%. The “PK improvement over ARI-001 and ARI-002, in words” value in data set [2] was “confirms the improvement”. For the same compound, the inhibition in vivo at 40 mg/kg in data set [6] (setting [8]) is 21.9%. For the same compound, in data set [3], the “activity group based on EC50 values, in the order of increasing activity” value was “active”. Moreover, in data set [3] (human HepG2 cells), the “activity in the human EROD assay compared to ARI-001 / ARI-002, in words” value is “significantly more (about 4 to 900 times more) active than ARI-001”.

The values are drawn from patent US11891386B2, “Indole compounds and their use” (ARIAGEN, INC., priority 2017, dated 2024).
